# Reference: the supplement of paper PMC10307832
# Key:
# Assay in all cases: relative viability (nuclei count vs DMSO), 5 days (fraction); higher = more cells survive
# [1] = compound: O=C(Nc1cc(C(F)(F)F)cc(C(F)(F)F)c1)c1cc(Cl)ccc1O [IMD-0354] + CC(=O)c1c(C)c2cnc(Nc3ccc(N4CCNCC4)cn3)nc2n(C2CCCC2)c1=O [Palbociclib] (partner 0.5 µM)
# Outline: (§1)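 The day after seeding in 1536-well plates, lung cancer cell lines were treated by pin tool with a single drug, or with a fixed anchor-drug dose together with five library-drug doses (not always all listed) in √10 steps. After 5 days, a combined fix-and-stain solution (final 0.05% Triton X-100, 1% formaldehyde, 1 ug/ml Hoechst) was added. Nuclei counted on 4× images gave relative viability as treated counts over vehicle counts, reported as the median of duplicate plates.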
# [2] = compound: O=C(Nc1cc(C(F)(F)F)cc(C(F)(F)F)c1)c1cc(Cl)ccc1O [IMD-0354] + Cc1cc(Nc2cc(N3CCN(C)CC3)nc(Sc3ccc(NC(=O)C4CC4)cc3)n2)n[nH]1 [Tozasertib] (partner 0.1 µM)
# Outline: as §1
# [3] = compound: O=C(Nc1cc(C(F)(F)F)cc(C(F)(F)F)c1)c1cc(Cl)ccc1O [IMD-0354] + Cc1nc(NC(=O)N2CCC[C@H]2C(N)=O)sc1-c1ccnc(C(C)(C)C(F)(F)F)c1 [Alpelisib] (partner 2 µM)
# Outline: as §1
# [4] = compound: O=C(Nc1cc(C(F)(F)F)cc(C(F)(F)F)c1)c1cc(Cl)ccc1O [IMD-0354] + N=C(N)NC(=N)NCCc1ccccc1 [Phenformin] (partner 250 µM)
# Outline: as §1
Cell Line,relative viability ([1]; first compound 0.04 µM),relative viability ([1]; first compound 0.1265 µM),relative viability ([1]; first compound 0.4 µM),relative viability ([1]; first compound 1.265 µM),relative viability ([1]; first compound 4 µM),relative viability ([2]; first compound 0.04 µM),relative viability ([2]; first compound 0.1265 µM),relative viability ([2]; first compound 0.4 µM),relative viability ([2]; first compound 1.265 µM),relative viability ([2]; first compound 4 µM),relative viability ([3]; first compound 0.04 µM),relative viability ([3]; first compound 0.1265 µM),relative viability ([3]; first compound 0.4 µM),relative viability ([3]; first compound 1.265 µM),relative viability ([3]; first compound 4 µM),relative viability ([4]; first compound 0.04 µM),relative viability ([4]; first compound 0.1265 µM),relative viability ([4]; first compound 0.4 µM),relative viability ([4]; first compound 1.265 µM),relative viability ([4]; first compound 4 µM)
HCC-78,0.538,0.506,0.322,0.383,0.424,0.467,0.598,0.3,0.368,0.231,0.366,0.345,0.121,0.231,0.192,0.667,0.697,0.398,0.439,0.292
HCC-366,0.474,0.535,0.259,0.0918,0.0749,0.122,0.0913,0.168,0.0335,0.031,0.509,0.727,0.148,0.373,0.0309,0.574,0.562,0.276,0.0732,0.0339
HCC-827,0.514,0.491,0.407,0.36,0.222,0.437,0.458,0.353,0.353,0.182,0.888,0.978,0.752,0.574,0.216,0.411,0.353,0.228,0.178,0.174
HOP-62,0.454,0.39,0.299,0.266,0.0933,0.46,0.374,0.263,0.228,0.108,0.839,1.2,0.896,0.837,0.178,0.842,0.482,0.363,0.12,0.165
IA-LM,–,–,–,–,–,–,–,–,–,–,0.806,0.617,0.634,0.106,0.178,–,–,–,–,–
LC-2-ad,0.531,0.451,0.333,0.287,0.181,0.484,0.528,0.377,0.243,0.257,0.979,0.835,0.397,0.106,0.115,0.612,0.548,0.232,0.267,0.17
LCLC-97TM1,0.227,0.225,0.111,0.174,0.103,0.2,0.223,0.171,0.18,0.116,–,0.272,0.245,0.207,0.113,0.43,0.451,0.234,0.18,0.126
LCLC-103H,0.469,0.468,0.459,0.386,0.331,0.597,0.509,0.425,0.449,0.222,0.952,0.998,0.839,0.815,0.397,0.39,0.304,0.197,0.214,0.177
LK-2,0.521,0.614,–,0.877,0.185,0.182,0.179,0.207,0.175,0.131,1.77,0.711,0.647,0.611,0.372,0.641,0.382,0.41,0.22,0.265
